The values below come from paper PMC5085154 (2016).

Experiment [1] has as its system dA21 (DNA, single strand) AAAAAAAAAAAAAAAAAAAAA
In words: competition dialysis. Particulars: Na+ 100 mM; 10 mM Tris-HCl, pH 7.2, room temperature; 1 μM compound; bound amount in figure.

The subject of experiment [2] is Pu27 (DNA, G4) TGGGGAGGGTGGGGAGGGTGGGGAAGG
In words: competition dialysis. The settings on record: Na+ 100 mM; 10 mM Tris-HCl, pH 7.2, room temperature; 1 μM compound; strongest of set; bound amount in figure.

Experiment [3] has the same test system. In words: CD titration. Particulars: K+ 100 mM; 10 mM Tris-HCl, pH 7.2; 5 μM DNA; 0-5 mol equiv compound.
The subject of experiment [4] is HTG21 (DNA, G4) GGGTTAGGGTTAGGGTTAGGG
In words: competition dialysis. The settings on record: Na+ 100 mM; 10 mM Tris-HCl, pH 7.2, room temperature; 1 μM compound; bound amount in figure.

For experiment [5], the system named is HTC21 (DNA, i motif) CCCTAACCCTAACCCTAACCC
In words: competition dialysis. Particulars: Na+ 100 mM; 10 mM Tris-HCl, pH 7.2, room temperature; 1 μM compound; bound amount in figure.

For experiment [6], the system named is Pu27 (DNA, G4) TGGGGAGGGTGGGGAGGGTGGGGAAGG
In words: PCR stop assay. The settings on record: apparent; Taq polymerase, Pu27rev reverse primer, 10 cycles, 58°C annealing; gel densitometry.

The test system of experiment [7] is dT21 (DNA, single strand) TTTTTTTTTTTTTTTTTTTTT
In words: competition dialysis. Particulars: Na+ 100 mM; 10 mM Tris-HCl, pH 7.2, room temperature; 1 μM compound; bound amount in figure.

Experiment [8] deals with FPu18T (Pu18) (DNA, G4) AGGGTGGGGAGGGTGGGG
In words: FRET melting. The settings on record: K+ (KCl, concentration not given); pH 7.2; Tm with ligand, "up to", not a shift; compound 2 μM (from mixing volumes), DNA 0.2 μM.

The subject of the next experiment is HT-7 (DNA, G4) TTAGGGT. In words: competition dialysis. Particulars: Na+ 100 mM; 10 mM Tris-HCl, pH 7.2, room temperature; 1 μM compound; bound amount in figure.
The subject of experiment [9] is HTG21mu (DNA, single strand) GAGTTAGAGTTAGAGTTAGAG
In words: competition dialysis. Particulars: Na+ 100 mM; 10 mM Tris-HCl, pH 7.2, room temperature; 1 μM compound; bound amount in figure.

The test system of experiment [10] is Pu27 (DNA, G4) TGGGGAGGGTGGGGAGGGTGGGGAAGG
In words: CD spectroscopy. Particulars: none (salt-free); 10 mM Tris-HCl, pH 7.2; 5 μM DNA; induces parallel G-quadruplex.

The subject of experiment [11] is HTds (HTC21:HTG21) (DNA, duplex) GGGTTAGGGTTAGGGTTAGGG/CCCTAACCCTAACCCTAACCC
In words: competition dialysis. Particulars: Na+ 100 mM; 10 mM Tris-HCl, pH 7.2, room temperature; 1 μM compound; bound amount in figure.

Experiment [12] has as its system 2(dT21):dA21 (DNA, triplex) AAAAAAAAAAAAAAAAAAAAA/TTTTTTTTTTTTTTTTTTTTT
In words: competition dialysis. Particulars: Na+ 100 mM; 10 mM Tris-HCl, pH 7.2, room temperature; 1 μM compound; bound amount in figure.

What is called IC50 is the midpoint of a concentration-inhibition curve. As for `CN(C)CCCNCCC(=O)Nc1ccc(C(=O)Nc2cc(Cl)ccc2-c2nc(NCCCN(C)C)c3ccccc3n2)cc1`, the binding entry in experiment [1] is listed as “weak”; in experiment [2], “yes”; in experiment [3] it was “yes”; in experiment [4], “yes”; in experiment [5], “yes”; in [7], “weak”. The binding result in the experiment with HT-7 (DNA, G4) TTAGGGT is reported as “yes”; in experiment [9], “weak”; in [10], “yes”; in experiment [11], “weak”; in [12], “weak”. The 50% inhibitory concentration (IC50) in experiment [6] stood at 2.13 µM. In addition, the Tm in experiment [8] amounted to 77.5 °C.
